From ChEMBL document CHEMBL5653631, “A Potent and Selective ULK1 Inhibitor Suppresses Autophagy and Sensitizes Cancer Cells to Nutrient Stress” (iScience, 2018)
Each block holds one molecule with its values, some of them ahead of it.

Columns and labels:
[1] = biological target: T1, Dual specificity protein kinase TTK (Homo sapiens) (UniProt P33981); assay: Inhibition of human recombinant TTK at 500 nM in presence of ATP by radiometric assay relative to control
T1 sequence (whole entry): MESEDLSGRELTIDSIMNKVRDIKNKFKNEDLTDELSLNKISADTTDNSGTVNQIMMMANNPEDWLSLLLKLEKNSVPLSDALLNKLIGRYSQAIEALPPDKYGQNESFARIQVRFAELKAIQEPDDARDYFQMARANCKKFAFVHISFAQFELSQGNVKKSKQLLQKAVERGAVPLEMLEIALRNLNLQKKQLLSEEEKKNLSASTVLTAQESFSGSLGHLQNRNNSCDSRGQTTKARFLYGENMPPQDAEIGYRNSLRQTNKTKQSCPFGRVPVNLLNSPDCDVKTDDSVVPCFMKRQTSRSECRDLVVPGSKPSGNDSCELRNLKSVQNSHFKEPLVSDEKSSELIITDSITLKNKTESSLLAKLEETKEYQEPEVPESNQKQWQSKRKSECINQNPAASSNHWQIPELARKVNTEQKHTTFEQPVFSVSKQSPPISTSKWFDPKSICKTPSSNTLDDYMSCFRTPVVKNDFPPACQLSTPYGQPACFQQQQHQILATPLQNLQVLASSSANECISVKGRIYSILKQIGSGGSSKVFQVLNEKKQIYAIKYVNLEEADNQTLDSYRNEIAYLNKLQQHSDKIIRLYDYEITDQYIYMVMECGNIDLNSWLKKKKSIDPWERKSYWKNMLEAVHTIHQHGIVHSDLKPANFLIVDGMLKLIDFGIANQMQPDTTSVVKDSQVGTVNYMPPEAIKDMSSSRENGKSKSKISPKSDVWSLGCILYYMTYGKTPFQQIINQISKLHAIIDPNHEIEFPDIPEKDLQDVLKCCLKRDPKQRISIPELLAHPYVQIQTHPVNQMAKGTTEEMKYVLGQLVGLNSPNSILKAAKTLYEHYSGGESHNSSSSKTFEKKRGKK

[2] = biological target: RAC-gamma serine/threonine-protein kinase (Homo sapiens) (UniProt Q9Y243); assay: Inhibition of human recombinant AKT3 at 500 nM related to control ULK1
RAC-gamma serine/threonine-protein kinase (Homo sapiens), sequence (Q9Y243 whole entry): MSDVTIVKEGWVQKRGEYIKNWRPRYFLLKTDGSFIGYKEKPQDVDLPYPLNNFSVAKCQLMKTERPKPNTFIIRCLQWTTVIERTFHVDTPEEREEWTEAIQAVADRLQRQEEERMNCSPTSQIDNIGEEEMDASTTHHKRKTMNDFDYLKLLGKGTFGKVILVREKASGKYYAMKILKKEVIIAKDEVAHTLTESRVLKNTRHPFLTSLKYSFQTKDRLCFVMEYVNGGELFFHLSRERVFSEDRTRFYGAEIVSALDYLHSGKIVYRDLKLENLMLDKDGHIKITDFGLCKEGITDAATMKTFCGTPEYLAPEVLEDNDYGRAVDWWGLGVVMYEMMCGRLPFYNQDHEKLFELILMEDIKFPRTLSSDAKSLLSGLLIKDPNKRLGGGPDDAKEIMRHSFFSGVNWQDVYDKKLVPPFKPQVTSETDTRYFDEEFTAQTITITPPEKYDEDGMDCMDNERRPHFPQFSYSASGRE

[3] = biological target: Serine/threonine-protein kinase Chk2 (Homo sapiens) (UniProt O96017); assay: Inhibition of human recombinant CHK2 at 500 nM related to control ULK1
Serine/threonine-protein kinase Chk2 (Homo sapiens), sequence (O96017 whole entry): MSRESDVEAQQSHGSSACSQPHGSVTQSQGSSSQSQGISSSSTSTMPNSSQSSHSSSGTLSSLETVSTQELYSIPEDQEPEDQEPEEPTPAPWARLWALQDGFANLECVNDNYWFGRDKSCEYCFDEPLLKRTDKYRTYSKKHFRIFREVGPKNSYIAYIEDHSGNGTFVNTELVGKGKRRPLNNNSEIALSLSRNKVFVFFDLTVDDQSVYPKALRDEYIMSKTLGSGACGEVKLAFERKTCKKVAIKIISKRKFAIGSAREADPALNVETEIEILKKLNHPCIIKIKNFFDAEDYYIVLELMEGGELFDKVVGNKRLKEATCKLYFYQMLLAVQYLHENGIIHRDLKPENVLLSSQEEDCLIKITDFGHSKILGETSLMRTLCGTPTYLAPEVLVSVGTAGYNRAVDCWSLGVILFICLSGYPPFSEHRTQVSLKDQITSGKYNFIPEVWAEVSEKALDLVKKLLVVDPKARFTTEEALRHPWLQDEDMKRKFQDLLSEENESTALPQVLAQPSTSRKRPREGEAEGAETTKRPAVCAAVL

[4] = biological target: Leukocyte tyrosine kinase receptor (Homo sapiens) (UniProt P29376); assay: Inhibition of human recombinant LTK at 500 nM related to control ULK1
Leukocyte tyrosine kinase receptor (Homo sapiens), sequence (P29376 whole entry): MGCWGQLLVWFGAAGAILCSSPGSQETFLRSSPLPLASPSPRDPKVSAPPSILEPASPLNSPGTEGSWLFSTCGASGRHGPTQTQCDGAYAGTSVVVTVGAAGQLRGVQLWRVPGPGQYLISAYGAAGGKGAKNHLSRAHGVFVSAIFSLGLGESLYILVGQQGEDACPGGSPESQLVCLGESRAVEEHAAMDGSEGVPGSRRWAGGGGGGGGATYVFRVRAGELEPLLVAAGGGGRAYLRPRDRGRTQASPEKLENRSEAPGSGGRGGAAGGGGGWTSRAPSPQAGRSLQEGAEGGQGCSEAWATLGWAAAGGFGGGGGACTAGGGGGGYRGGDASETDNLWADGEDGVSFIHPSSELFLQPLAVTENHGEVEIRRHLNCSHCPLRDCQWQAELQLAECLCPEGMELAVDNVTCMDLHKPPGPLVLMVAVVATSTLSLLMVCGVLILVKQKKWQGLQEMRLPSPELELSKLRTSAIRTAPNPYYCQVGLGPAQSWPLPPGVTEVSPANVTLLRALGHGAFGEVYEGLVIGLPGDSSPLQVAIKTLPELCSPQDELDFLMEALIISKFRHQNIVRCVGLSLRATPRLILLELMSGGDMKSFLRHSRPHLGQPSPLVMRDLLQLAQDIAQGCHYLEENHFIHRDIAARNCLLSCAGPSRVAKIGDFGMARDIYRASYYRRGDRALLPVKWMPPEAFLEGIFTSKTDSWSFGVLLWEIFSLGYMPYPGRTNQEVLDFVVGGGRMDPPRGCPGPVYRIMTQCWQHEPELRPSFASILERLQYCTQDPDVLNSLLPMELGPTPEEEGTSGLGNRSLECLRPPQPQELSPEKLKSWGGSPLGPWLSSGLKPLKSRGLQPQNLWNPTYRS

[5] = biological target: T2, MAPK/MAK/MRK overlapping kinase (Homo sapiens) (UniProt Q9UQ07); assay: Inhibition of human recombinant MOK at 500 nM related to control ULK1
T2 sequence (whole entry): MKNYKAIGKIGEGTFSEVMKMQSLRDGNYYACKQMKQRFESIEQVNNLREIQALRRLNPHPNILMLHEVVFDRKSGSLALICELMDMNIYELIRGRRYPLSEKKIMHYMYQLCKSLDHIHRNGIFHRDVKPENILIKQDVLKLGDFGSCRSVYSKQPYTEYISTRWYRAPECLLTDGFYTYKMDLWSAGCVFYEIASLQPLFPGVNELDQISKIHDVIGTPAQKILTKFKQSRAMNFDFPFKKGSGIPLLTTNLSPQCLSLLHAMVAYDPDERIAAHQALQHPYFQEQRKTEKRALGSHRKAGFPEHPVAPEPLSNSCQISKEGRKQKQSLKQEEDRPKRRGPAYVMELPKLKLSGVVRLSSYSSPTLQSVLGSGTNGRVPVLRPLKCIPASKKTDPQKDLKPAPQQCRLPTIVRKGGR

[6] = biological target: Serine/threonine-protein kinase 38-like (Homo sapiens) (UniProt Q9Y2H1); assay: Inhibition of human recombinant NDR2 at 15 nM in presence of ATP by radiometric assay relative to control
Serine/threonine-protein kinase 38-like (Homo sapiens), sequence (Q9Y2H1 2-464 limits assumed): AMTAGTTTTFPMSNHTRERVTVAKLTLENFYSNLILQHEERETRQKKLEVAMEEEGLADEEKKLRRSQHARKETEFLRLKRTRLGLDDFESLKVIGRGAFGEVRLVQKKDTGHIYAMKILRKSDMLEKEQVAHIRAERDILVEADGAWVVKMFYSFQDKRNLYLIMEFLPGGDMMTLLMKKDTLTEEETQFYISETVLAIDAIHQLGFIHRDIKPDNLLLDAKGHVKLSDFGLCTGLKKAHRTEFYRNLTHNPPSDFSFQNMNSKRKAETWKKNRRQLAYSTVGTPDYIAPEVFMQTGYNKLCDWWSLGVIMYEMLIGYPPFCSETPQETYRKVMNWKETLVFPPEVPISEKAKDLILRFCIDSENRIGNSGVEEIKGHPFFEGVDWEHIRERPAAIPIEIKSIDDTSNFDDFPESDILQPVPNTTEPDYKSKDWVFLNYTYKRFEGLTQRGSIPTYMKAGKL

[7] = biological target: Vascular endothelial growth factor receptor 1 (Homo sapiens) (UniProt P17948); assay: Inhibition of human recombinant FLT1 at 15 nM related to control ULK1
[8] = biological target: Serine/threonine-protein kinase MRCK beta (Homo sapiens) (UniProt Q9Y5S2); assay: Inhibition of human recombinant MRCKb at 15 nM related to control ULK1
Serine/threonine-protein kinase MRCK beta (Homo sapiens), sequence (Q9Y5S2 whole entry): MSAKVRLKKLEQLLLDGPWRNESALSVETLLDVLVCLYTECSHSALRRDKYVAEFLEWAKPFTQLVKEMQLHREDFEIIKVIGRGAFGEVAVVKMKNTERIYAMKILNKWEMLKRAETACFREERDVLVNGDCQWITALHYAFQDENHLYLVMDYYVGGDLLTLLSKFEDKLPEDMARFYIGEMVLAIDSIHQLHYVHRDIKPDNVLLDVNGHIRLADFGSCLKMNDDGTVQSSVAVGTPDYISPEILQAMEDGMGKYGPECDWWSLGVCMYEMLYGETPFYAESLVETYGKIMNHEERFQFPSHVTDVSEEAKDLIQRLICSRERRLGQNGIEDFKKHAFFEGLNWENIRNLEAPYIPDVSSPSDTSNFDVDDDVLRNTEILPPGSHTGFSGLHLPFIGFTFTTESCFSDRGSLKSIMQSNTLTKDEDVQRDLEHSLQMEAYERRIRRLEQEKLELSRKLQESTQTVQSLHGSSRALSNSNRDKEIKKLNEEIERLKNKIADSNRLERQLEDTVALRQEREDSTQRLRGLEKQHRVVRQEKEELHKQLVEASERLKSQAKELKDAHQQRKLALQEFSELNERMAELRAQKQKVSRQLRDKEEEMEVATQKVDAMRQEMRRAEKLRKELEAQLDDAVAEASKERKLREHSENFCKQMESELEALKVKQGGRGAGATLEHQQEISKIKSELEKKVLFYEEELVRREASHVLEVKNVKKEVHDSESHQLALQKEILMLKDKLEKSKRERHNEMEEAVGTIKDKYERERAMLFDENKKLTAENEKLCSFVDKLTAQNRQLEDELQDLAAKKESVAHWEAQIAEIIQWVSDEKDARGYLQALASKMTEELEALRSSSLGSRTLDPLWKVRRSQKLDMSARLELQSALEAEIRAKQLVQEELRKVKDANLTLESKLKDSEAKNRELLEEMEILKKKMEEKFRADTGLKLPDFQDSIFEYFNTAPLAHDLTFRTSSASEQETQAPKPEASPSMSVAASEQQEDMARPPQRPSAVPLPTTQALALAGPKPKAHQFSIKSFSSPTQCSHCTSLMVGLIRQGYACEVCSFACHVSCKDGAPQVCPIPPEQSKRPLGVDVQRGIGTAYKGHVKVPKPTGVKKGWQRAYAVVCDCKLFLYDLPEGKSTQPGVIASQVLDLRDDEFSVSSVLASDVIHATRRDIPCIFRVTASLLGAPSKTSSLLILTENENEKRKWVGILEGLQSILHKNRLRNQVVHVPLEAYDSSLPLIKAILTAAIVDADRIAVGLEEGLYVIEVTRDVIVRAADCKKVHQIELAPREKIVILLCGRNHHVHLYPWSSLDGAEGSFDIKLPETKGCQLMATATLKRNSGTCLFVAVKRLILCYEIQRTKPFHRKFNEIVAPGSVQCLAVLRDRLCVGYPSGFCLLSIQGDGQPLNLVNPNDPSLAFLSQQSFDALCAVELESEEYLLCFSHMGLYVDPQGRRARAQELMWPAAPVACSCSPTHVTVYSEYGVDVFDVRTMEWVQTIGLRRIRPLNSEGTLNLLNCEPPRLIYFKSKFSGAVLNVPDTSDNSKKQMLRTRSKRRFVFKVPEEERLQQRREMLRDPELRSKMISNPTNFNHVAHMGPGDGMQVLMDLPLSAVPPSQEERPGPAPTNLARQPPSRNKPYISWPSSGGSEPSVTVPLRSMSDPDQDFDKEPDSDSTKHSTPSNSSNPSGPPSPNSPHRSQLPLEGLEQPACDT

[9] = biological target: Calcium/calmodulin-dependent protein kinase type II subunit delta (Homo sapiens) (UniProt Q13557); assay: Inhibition of human recombinant CaMK2d at 40 nM related to control ULK1
Calcium/calmodulin-dependent protein kinase type II subunit delta (Homo sapiens), sequence (Q13557 whole entry): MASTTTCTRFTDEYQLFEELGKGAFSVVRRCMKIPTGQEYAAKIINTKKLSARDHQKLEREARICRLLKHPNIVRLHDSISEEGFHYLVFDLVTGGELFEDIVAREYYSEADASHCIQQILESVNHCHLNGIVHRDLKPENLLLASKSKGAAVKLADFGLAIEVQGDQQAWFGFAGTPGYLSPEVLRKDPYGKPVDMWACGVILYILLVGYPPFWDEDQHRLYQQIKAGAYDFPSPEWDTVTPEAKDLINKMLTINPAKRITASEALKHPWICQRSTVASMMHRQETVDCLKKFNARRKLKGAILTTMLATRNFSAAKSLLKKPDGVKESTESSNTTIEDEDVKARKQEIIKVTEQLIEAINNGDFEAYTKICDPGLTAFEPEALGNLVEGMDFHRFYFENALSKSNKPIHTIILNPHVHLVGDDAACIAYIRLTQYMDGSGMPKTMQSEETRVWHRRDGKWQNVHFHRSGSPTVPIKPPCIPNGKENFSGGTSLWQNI

[10] = biological target: Cyclin-dependent kinase 7 (Homo sapiens) (UniProt P50613); assay: Inhibition of human recombinant CDK7 at 40 nM related to control ULK1
Cyclin-dependent kinase 7 (Homo sapiens), sequence (P50613 whole entry): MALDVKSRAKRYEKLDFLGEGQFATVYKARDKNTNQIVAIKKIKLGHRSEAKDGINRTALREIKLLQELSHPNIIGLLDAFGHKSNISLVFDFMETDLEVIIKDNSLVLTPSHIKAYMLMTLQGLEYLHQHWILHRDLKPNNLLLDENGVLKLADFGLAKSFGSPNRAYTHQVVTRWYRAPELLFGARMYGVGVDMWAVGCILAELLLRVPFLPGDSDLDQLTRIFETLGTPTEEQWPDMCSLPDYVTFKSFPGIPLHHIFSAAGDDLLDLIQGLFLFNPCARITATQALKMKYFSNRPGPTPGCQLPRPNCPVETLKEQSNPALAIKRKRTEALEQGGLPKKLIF

[11] = biological target: T3, Serine/threonine-protein kinase STK11 (Homo sapiens) (UniProt Q15831); assay: Inhibition of human recombinant LKB1 at 40 nM related to control ULK1
T3 sequence (whole entry): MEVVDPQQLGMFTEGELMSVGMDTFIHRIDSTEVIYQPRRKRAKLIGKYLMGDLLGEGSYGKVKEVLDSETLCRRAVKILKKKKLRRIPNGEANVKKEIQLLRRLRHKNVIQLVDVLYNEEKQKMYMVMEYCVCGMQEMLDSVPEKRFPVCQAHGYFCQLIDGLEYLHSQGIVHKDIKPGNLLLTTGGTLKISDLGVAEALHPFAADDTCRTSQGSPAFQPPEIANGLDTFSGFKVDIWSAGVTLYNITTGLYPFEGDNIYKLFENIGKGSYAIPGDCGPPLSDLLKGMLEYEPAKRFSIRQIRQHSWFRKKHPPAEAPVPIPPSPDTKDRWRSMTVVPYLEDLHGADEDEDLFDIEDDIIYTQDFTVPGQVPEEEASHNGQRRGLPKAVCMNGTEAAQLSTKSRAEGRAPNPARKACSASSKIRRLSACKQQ

[12] = biological target: Macrophage-stimulating protein receptor (Homo sapiens) (UniProt Q04912); assay: Inhibition of human recombinant RON at 40 nM related to control ULK1

inhibition [1]: 11% | fold change (FC) [2]: 0.07 | fold change (FC) [3]: 0 | fold change (FC) [4]: 0.04 | fold change (FC) [5]: 0.03
Compound: CNC(=O)c1ccccc1Oc1nc(Nc2cc(OC)c(OC)c(OC)c2)ncc1Br

inhibition [6]: 2% | fold change (FC) [7]: 0.1 | fold change (FC) [8]: 0.07
Compound: CC(C)[C@H](NC(=O)c1cc(-c2cnn3cc(-c4ccc(OCCN5CCCCC5)cc4)cnc23)cs1)C(F)(F)F

fold change (FC) [9]: 0.01 | fold change (FC) [10]: 0.32 | fold change (FC) [11]: 0.18 | fold change (FC) [12]: 0
Compound: O=C(N[C@@H](C1CC1)C(F)(F)F)c1cc(-c2cnn3cc(-c4ccc(F)cc4)cnc23)cs1
